Our source for the viability, T/C, IC50 and outcome values is PubChem BioAssay AID1845213 (Molecular Pharmacology Branch, DTP, NCI, 2023).

The term viability, T/C denotes the result in the treated group divided by that in the control group, in per cent. Broadly, the IC50 is the concentration that inhibits the measured activity by half.

The structures appear in SMILES notation. Several values for one entry are separate records, joined by “and”; a condition that tells them apart may be missing. Identical values can stand only once. Activity calls are given as the source filed them. Rule for the calls: active = viability on the fitted dose curve at most 10% of control; inactive = the rest.

For the test, the system named is NCI-H841 complex tumor spheroid viability. Put plainly: Anticancer human tumor NCI-H841 cell line growth inhibition.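 For IC50: spheroids exposed to compounds for 7 days before readout.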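 For viability, T/C: spheroids exposed to compounds for 7 days before readout; 100% = DMSO vehicle control wells.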 As to conditions: for viability, T/C: stronger effect = lower value. The source says:
Multicellular complex tumor spheroid response to DNA repair inhibitors in combination with DNA-damaging drugs
This study explores the anticancer activities of DNA-damaging drugs and inhibitors of DNA damage repair, both as single agents and in combinations. Complex tumor spheroids comprised of malignant cells, endothelial cells and mesenchymal stem cells served as an in vitro model for human solid tumors. This model system incorporates physiologically relevant features and patient-derived or established malignant cell lines with clinically relevant genetic alterations from many tumor types. Twenty-six patient-derived or established malignant cell lines were evaluated representing sarcoma, melanoma, small cell lung cancer (SCLC), non-small cell lung cancer (NSCLC), as well as bladder, ovarian and pancreatic cancers. The concentration ranges selected for each drug and investigational agent were based upon clinically achievable concentrations if the clinical Cmax of the agent was known.
Compounds. The drugs and compounds olaparib (NSC753686), talazoparib (NSC767125), berzosertib (NSC777718), elimusertib (NSC800525), nedisertib (NSC802822), VX-984 (NSC792969), AZD-1390 (NSC803789), temozolomide (NSC362856), topotecan (NSC609699), trabectedin (NSC813783), staurosporine (NSC755774), and gemcitabine (NSC613327) were obtained from the National Cancer Institute (NCI) Developmental Therapeutics Program Chemical Repository. The FDA-approved anticancer drug set is available from the Developmental Therapeutics Program at https://dtp.cancer.gov/organization/dscb/obtaining/available_plates.htm. […] The stock solutions were prepared in dimethyl sulfoxide (DMSO, Sigma-Aldrich, St. Louis, MO, cat. D2650) at 400-fold the tested concentration and stored at -70 degrees C. Prior to their use, the stock solutions were diluted in fresh medium and the final DMSO concentration in the assay was 0.25% (v/v). All drugs and investigational agents were tested over a range starting from a high concentration at or near the clinical Cmax and decreasing in half-log increments. If the clinical Cmax for an agent had not been determined, the highest concentration tested was 10 microM.
Cell Lines. The patient-derived cancer cell (PDC) lines: 156681-154-R-J1-PDC, 283228-195-R-J1-PDC, 287954-098-R-J1-PDC, 292921-168-R-J2-PDC, 349418-098-R-PDC, 425362-245-T-J1-PDC, 556581-035-R-J1-PDC, and BL0293-F563-PDC were received from the NCI Patient-Derived Models Repository (PDMR, https://pdmr.cancer.gov). The established cell lines HS-SY-2 (RRID:CVCL_8719), MPNST, and SYO-1 (RRID:CVCL_7146) were obtained from the Sloan Kettering Institute. The alveolar soft parts sarcoma cell line ASPS-1 (RRID:CVCL_S738) was established at the NCI and grown from internal seed stocks. The following established cell lines were purchased from the American Type Culture Collection (ATCC, Manassas, VA): G-401 (ATCC, cat. CRL-1441, RRID:CVCL_0270), SW982 (ATCC, cat. HTB-93, RRID:CVCL_1734), VA-ES-BJ (ATCC, cat. CRL-2138, RRID:CVCL_1785), NCI-H719 (ATCC, cat. CRL-5837, RRID:CVCL_1582), NCI-H196 (ATCC, cat. CRL-5823, RRID:CVCL_1509), NCI-H841 (ATCC, cat. CRL-5845, RRID:CVCL_1595), NCI-H1618 (ATCC, cat. CRL-5879, RRID:CVCL_1480), NCI-H1876 (ATCC, cat. CRL-5902, RRID:CVCL_1503), DMS 114 (ATCC, cat. CRL-2066; RRID:CVCL_1174), NCI-H211 (ATCC, cat. CRL-5824; RRID:CVCL_1529), and SW 1271 (ATCC, cat. CRL-2177, RRID:CVCL_1716). The small cell lung cancer cell line COR-L88 was purchased from Sigma-Aldrich (cat. 92031917-1VL, RRID:CVCL_1141). The non-small cell lung cancer cell lines NCI-H226 (RRID:CVCL_1544) and NCI-H322M (RRID:CVCL_1557) were established at the NCI and grown from internal seed stocks. Pooled donor human umbilical vein endothelial cells (HUVEC, Lonza, cat. CC-2519) and human mesenchymal stem cells (hMSC, Lonza, cat. PT-2501) were purchased from Lonza (Walkersville, MD).
Cell Culture. All cells were maintained in an incubator at 37 degrees C and 5% CO2 with 95% humidity. […]

Setting [1] is: compound alone, run of 11/07/2019.
Setting [2] is: compound alone, run of 12/16/2019.

Turning to `CC(C)n1c(=O)n(C)c2cnc3cc(F)c(-c4ccc(OCCCN5CCCCC5)nc4)cc3c21`, the viability, T/C is, setting by setting: (compound 0.0316 µM) 96.6% and 93.7% and 101%; (compound 0.1 µM) 94.6% and 91.3% and 99.4%; (compound 0.316 µM) 93.6% and 95.8% and 99.8%; (compound 1 µM) 94.1% and 91.1% and 99.3%; (compound 3.16 µM) 91.6% and 80.8% and 97%; (compound 10 µM) 88.3% and 76.8% and 90.8%. The IC50 (curve of compound) was more than 10000 nM.

For `CC1COCCN1c1cc(-c2ccnn2C)c2ccnc(-c3ccn[nH]3)c2n1` (stereo not given), the viability, T/C reads like this: (compound 0.0316 µM) 77.2% and 68.7% and 83.9%; (compound 0.1 µM) 16.2% and 27.3% and 39.8%; (compound 0.316 µM) 4.34% and 9.62% and 7.72%; (compound 1 µM) 1.61% and 3.17% and 2.67%; (compound 3.16 µM) 1.48% and 2.14% and 1.89%; (compound 10 µM) 1.73% and 2.18% and 2.49%. Further, the IC50 (curve of compound) was 52.8 nM and 53.1 nM and 76.6 nM.

On to `CC[C@@]1(O)C(=O)OCc2c1cc1n(c2=O)Cc2cc3c(CN(C)C)c(O)ccc3nc2-1`, for which the viability, T/C is 98.1% [middle of 10 runs] (compound 0.003 µM), 2.24% [middle of 10 runs] (compound 0.03 µM), 1.86% [middle of 10 runs] (compound 0.0949 µM) and 1.86% [middle of 10 runs] (compound 0.3 µM). Further, the IC50 by setting is: under setting [1], 12 nM [middle of 5 runs]; under setting [2], 15.8 nM [middle of 4 runs].

Take `CNCc1ccc(-c2cc(-c3nc(-c4ccc(S(=O)(=O)C(C)C)cc4)cnc3N)on2)cc1`: the viability, T/C by setting is: (compound 0.00949 µM) 100% (2×) and 97.3%; (compound 0.03 µM) 94.6% and 98.1% and 99.8%; (compound 0.0949 µM) 28.9% and 81.8% and 95.3%; (compound 0.3 µM) 25.2% and 24% and 63.7%; (compound 0.949 µM) 6.79% and 3.39% and 9.67%; (compound 3 µM) 3.17% and 1.05% and 2.03%. Further, the IC50 (curve of compound) is 66 nM and 179 nM and 400 nM.

With `COc1cc(C)[nH]c(=O)c1CN1CCc2c(Cl)cc(C(OC)C3COC3)c(Cl)c2C1=O` (stereo not given), the viability, T/C is 91% and 78.5% and 86.2% (compound 0.0316 µM); 73.6% and 74.6% (compound 0.1 µM); 73.2% and 67.7% (compound 0.316 µM); 65% and 42.6% and 61.8% (compound 1 µM); 60.1% and 38.4% and 55.5% (compound 3.16 µM); 54.7% and 35.1% and 51.2% (compound 10 µM). In addition, the outcome is “inactive” (compound 0.1 µM) and “inactive” (compound 0.316 µM).

Turning to `COc1cc2c(cc1O)CCNC21CSC2c3c(OC(C)=O)c(C)c4c(c3C(COC1=O)N1C(O)C3Cc5cc(C)c(OC)c(O)c5C(C21)N3C)OCO4` (stereo not given), the viability, T/C reads like this: (compound 30 pM) 102% [middle of 10 runs]; (compound 94.9 pM) 99.5% [middle of 10 runs]; (compound 0.000949 µM) 3.1% [middle of 10 runs]; (compound 0.003 µM) 0.11% [middle of 4 runs]. Also, the IC50 under setting [2] is 0.258 nM [middle of 10 runs].

Consider `COc1ccc([C@@H](O)c2cc(-c3ncnc4cc(N5CCOCC5)ccc34)c(F)cc2Cl)nn1`, for which the viability, T/C was 97.7% and 102% and 99.6% (compound 0.0316 µM); 101% and 104% and 99.6% (compound 0.1 µM); 95.7% and 99% and 96.2% (compound 0.316 µM); 93.4% and 89.9% (compound 1 µM); 67% and 34.4% and 73.9% (compound 3.16 µM); 13.7% and 8.86% and 17% (compound 10 µM). Further, for the setting “compound 1 µM”, the outcome was inactive. Moreover, the IC50 (curve of compound) is 4570 nM and 2150 nM and 5090 nM.

As for `Cc1cc(C)c(CNC(=O)c2cc(-c3ccc(CN4CCOCC4)cc3)cc3c2cnn3C2CCCC2)c(=O)[nH]1`, the viability, T/C runs as follows: (compound 0.0316 µM) 101% and 99.7% and 102%; (compound 0.1 µM) 103% and 98.5% and 102%; (compound 0.316 µM) 99.7% and 106% and 98.5%; (compound 1 µM) 99.8% and 93.7% and 97.1%; (compound 3.16 µM) 87.3% and 84.7% and 80.8%; (compound 10 µM) 65.2% and 43.9% and 50.7%. Further, the IC50 (curve of compound) is > 10000 nM and 8450 nM.

As for `Cc1sc2c(c1C)C(c1ccc(Cl)cc1)=NC(CC(=O)Nc1ccc(O)cc1)c1nnc(C)n1-2` (stereo not given), the viability, T/C by setting is: (compound 0.00949 µM) 104% and 97.9% and 102%; (compound 0.03 µM) 110% and 95.7% and 101%; (compound 0.0949 µM) 87.8% and 91.9% and 91.2%; (compound 0.3 µM) 65.4% and 75.9% and 82.7%; (compound 0.949 µM) 25.2% and 33.3% and 44%; (compound 3 µM) 8.1% and 7.29% and 14.4%. In addition, the IC50 (curve of compound) is 452 nM and 604 nM and 807 nM.

For `Cn1ncnc1[C@H]1c2n[nH]c(=O)c3cc(F)cc(c23)N[C@@H]1c1ccc(F)cc1`, the viability, T/C is, setting by setting: (compound 0.00949 µM) 90.1% and 29.7% and 97.4%; (compound 0.03 µM) 85.4% and 30.6% and 90.1%; (compound 0.0949 µM) 80.3% and 9.88% and 89.6%; (compound 0.3 µM) 55.7% and 62.9% and 83.3%; (compound 3 µM) 7.92% and 2.5% and 1.44%.

Regarding `Cn1nnc2c(C(N)=O)ncn2c1=O`, the viability, T/C is 101% [middle of 9 runs] (compound 1 µM), 101% [middle of 10 runs] (compound 3.16 µM) and 101% [middle of 10 runs] (compound 10 µM). Also, the IC50 under setting [1] was > 100000 nM and 17400 nM.

On to `O=C(c1cc(Cc2n[nH]c(=O)c3ccccc23)ccc1F)N1CCN(C(=O)C2CC2)CC1`, for which the viability, T/C runs as follows: (compound 0.0949 µM) 101% and 95.3% and 103%; (compound 0.3 µM) 93.6% and 103%; (compound 0.949 µM) 94.8% and 89.4% and 99.4%; (compound 3 µM) 43.4% and 81.5% and 88.2%; (compound 30 µM) 8.7% and 7.95% and 1.92%. In addition, the outcome (compound 0.3 µM) was inactive. Besides, under “curve of compound”, the IC50 is 2580 nM and 6160 nM and 5100 nM.

Turning to `[2H]c1nc(C)nc([2H])c1-c1cc(NC[C@@H](C)c2cccc3c(C(=O)NC)ccnc23)ncn1`, the viability, T/C (compound 0.0316 µM) was 100% and 97.5% and 102%; the viability, T/C (compound 0.1 µM) was 99.4% and 97.2% and 100%; the viability, T/C (compound 0.316 µM) is 98.4% and 102% and 98.1%; the viability, T/C (compound 1 µM) is 98.7% and 99.9% and 96.8%; the viability, T/C (compound 3.16 µM) was 98.2% and 103% and 95.4%; the viability, T/C (compound 10 µM) was 92.6% and 102% and 96.8%. The IC50 (curve of compound) is more than 10000 nM.
